Read-outs that look alike come from different tables or passages of the source.
Legend:
PSMA [1] = molecular target: T1, PSMA (Homo sapiens, UniProt Q04609); test: In vitro saturation binding assay with PC3(+) tumor membrane preparations
T1 construct: expressed in transfected cells; host or cells: PC3(+) (PC3 human prostate cancer cells transfected with human PSMA), grown as xenograft tumors in athymic mice; tumor membrane preparations
Experimental: (§1) PC3(−) (wildtype human prostate cancer cell line, PSMA negative) and PC3(+) (transfected with human PSMA) were provided by Dr. Hisataka Kobayashi. Cell lines were grown at 37 °C in 5% CO2 in RPMI-1640 supplemented with 10% FBS, 2 mM L-glutamine and Pen/Strep/Amphotericin B. PC3(+) and PC3(−) cell suspensions [2 × 10^6 cells; PBS:Matrigel (70:30)] from in vitro cell culture were subcutaneously implanted (right shoulder) into athymic mice (Athymic NCr- nu/nu, Charles River Laboratory, 4 weeks old) for use as positive and negative controls, respectively, for in vitro or in vivo studies. When tumors reached the appropriate size (>100 mg) the xenograft mice were used for in vivo biodistributions and imaging studies or the tumors were excised and further processed to obtain membrane preparations for in vitro assays as described previously.
In vitro saturation studies were performed to determine binding affinities (Kd) and PSMA expression levels (Bmax) using tumor membrane preparations from PC3(−) and PC3(+) PSMA xenografts (human prostate cancer cell line transfected with human PSMA; PC3(+)). […] Filter papers were collected, and the radioactive content was quantified by gamma counting (PerkinElmer 2480 Wizard3). […] Aliquots of each membrane preparation were taken for the determination of the protein concentration (Bradford method).

PSMA [2] = molecular target: T1, PSMA; test: In vitro competition binding assay with [18F]DCFPyL as radioligand, PC3(+) tumor membrane preparations
PC3(+) xenografts [3] = test: In vivo biodistribution in PC3(+) xenograft mice; parameters: key to salivary gland T:M / Femur T:M / Blood T:M / Kidney T:M / Liver T:M: T:M = (%ID/g in tissue) / (%ID/g in muscle)
Experimental: as §1
(§2) Tumor-bearing mice (tumor weights: 0.1–0.8 g) were injected while awake via the tail vein with each of the tracers [0.74–3.7 MBq (20 to 100 µCi), 10 to 80 pmol] and euthanized (via CO2 inhalation) at selected times. […] Blood samples and tissues were excised from each animal, weighed, and radioactivity content was determined (Perkin Elmer 2480 Wizard3). Radioactivity content in the blood and each tissue was expressed as % injected dose per gram of tissue [%ID/g; (Formula (1))] and then normalized for body weight to a 20 g mouse (Formula (2)) from which Tissue:Muscle ratios [T:M; (Formula (3))] were determined as follows:(1) %ID/g =[counts per minute cpmtissue / tissue weight g]×100/cpmtotal injected dose
(§3) %ID/g (normalized to a 20 g mouse) = (%ID/g) × (body weight/20 g)(2)
(§4) (3) T:M=%ID/gtissue/%ID/gmuscle

PC3(−) xenografts = test: In vivo biodistribution in PC3(−) xenograft mice (negative control); conditions: 60 min; for PC3(−) Tumor T:M: mean ± SE, n = 8–10
Experimental: as §1, §2, §3, §4

[4] = Fraction of intact tracer (parent) in blood and kidney by TLC; assay type: in vivo, mice; conditions: for %Parent compound in blood (TLC analysis): 60 min, mean ± SD, n = 2–5; for tissue uptake at 1 h: 60 min post-injection; for tissue uptake at 2 h: 120 min post-injection
Source text: In some cases, additional blood samples and/or tissue samples after gamma counting were taken for determining the fraction of intact radiolabeled tracer (parent) using thin-layer chromatography (TLC). For these TLC determinations: tissues were placed in equal volumes of acetonitrile and homogenized, or serum was obtained from the blood samples and mixed with an equal volume of acetonitrile. Following centrifugation of the samples, supernatants were collected and the radioactive content of the supernatants and pellets were determined. The supernatants were then applied to thin-layer chromatography (TLC) plates. The TLC plates were developed [solvent system: ethyl acetate (80%), methanol (10%) and acetic acid (10%)], and exposed on a phosphorimaging plate which was scanned the next day.

PC3(+) xenografts [5] = test: Blocking biodistribution study in PC3(+) xenografts, coinjection of non-radioactive DCFPyL; assay type: in vivo, mice; conditions: 60 min
Experimental: as §2, §3, §4

[6] = tested on: PC3(+) tumor xenograft mice; test: Small animal PET imaging with ROI analysis, PC3(+) tumor xenograft mice; assay type: in vivo; conditions: 60 min post-injection
Experimental: Tumor-bearing mice were anesthetized with isoflurane/O2 (1.5–3% v/v) and imaged at various times after intravenous injection of each tracer [2.6 to 3.7 MBq (70 to 100 µCi)]. Whole body static PET images were obtained at 2 bed positions (FOV = 2.0 cm, total imaging time: 10 min) using a BioPET scanner (Bioscan Inc., Washington, DC, USA). The images were reconstructed by a 3-dimensional ordered-subsets expectation maximum (3D-OSEM).

[7] = 15 min post-injection, mean ± SE
[8] = 30 min post-injection, mean ± SE
[9] = 60 min post-injection, mean ± SE
[10] = 120 min post-injection, mean ± SE
[11] = mouse, blood, intravenous, mean ± SE, read-out: Blood uptake, parent (corrected for metabolites)
[12] = mouse, kidney, intravenous, mean ± SE, read-out: Kidney uptake, parent (corrected for metabolites)

T1 sequence (Q04609 whole entry): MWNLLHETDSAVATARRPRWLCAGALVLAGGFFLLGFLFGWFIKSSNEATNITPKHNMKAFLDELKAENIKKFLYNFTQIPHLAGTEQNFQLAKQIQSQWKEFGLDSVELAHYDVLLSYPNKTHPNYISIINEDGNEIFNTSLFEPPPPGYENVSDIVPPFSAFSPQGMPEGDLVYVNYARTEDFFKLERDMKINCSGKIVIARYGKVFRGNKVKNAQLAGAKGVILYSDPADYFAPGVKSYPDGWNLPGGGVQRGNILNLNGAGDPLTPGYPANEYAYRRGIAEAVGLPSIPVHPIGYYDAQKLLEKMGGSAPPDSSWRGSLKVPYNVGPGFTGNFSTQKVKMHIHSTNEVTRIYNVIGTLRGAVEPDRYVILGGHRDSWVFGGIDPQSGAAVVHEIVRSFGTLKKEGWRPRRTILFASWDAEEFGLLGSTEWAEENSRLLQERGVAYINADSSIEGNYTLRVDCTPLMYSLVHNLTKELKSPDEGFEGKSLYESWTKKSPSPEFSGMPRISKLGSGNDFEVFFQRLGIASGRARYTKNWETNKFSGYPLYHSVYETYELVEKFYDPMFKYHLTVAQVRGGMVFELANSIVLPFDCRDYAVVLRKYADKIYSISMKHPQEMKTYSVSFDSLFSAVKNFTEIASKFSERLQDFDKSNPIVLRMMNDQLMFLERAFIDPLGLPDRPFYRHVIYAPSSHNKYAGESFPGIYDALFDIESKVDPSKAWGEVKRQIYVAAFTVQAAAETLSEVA

O=C(O)CC[C@H](NC(=O)N[C@@H](CCCCNC(=O)CO/N=C\c1ccc([18F])cc1)C(=O)O)C(=O)O [[^18F]1a, reference compound]
Kd (PSMA [1]; saturation assays, mean (SE), n = 3–5): 0.238 nM
Ki (PSMA [2]): 0.1 nM
decrease in Ki compared to Ki of DCFPyL (PSMA [2]; p = 0.006): ~ 4 fold
Blood T:M (PC3(+) xenografts [3]; 60 min, mean ± SE, n = 8–10): 2.39 ± 0.14
Femur T:M (PC3(+) xenografts [3]; 60 min, mean ± SE, n = 8–10): 0.92 ± 0.09
Kidney T:M (PC3(+) xenografts [3]; 60 min, mean ± SE, n = 8–10): 507.8 ± 44.0
Liver T:M (PC3(+) xenografts [3]; 60 min, mean ± SE, n = 8–10): 35.7 ± 3.1
PC3(+) Tumor T:M (PC3(+) xenografts [3]; 60 min, mean ± SE, n = 8–10): 103.0 ± 10.9
PC3(−) Tumor T:M (PC3(−) xenografts): 1.07 ± 0.08
%Parent compound in blood (TLC analysis) [4]: 50.2 ± 1.4%

O=C(O)CCC(NC(=O)NC(CCCCNC(=O)c1ccc([18F])nc1)C(=O)O)C(=O)O (stereo not shown) [[^18F]DCFPyL, 2-(3-(1-carboxy-5-[(6-[^18F]fluoropyridine-3-carbonyl)-amino]-pentyl)-ureido)-pentanedioic acid, reference compound]
Bmax (PSMA expression level) (PSMA [1]; n = 5): 13.95 ± 1.60 fmol/µg of protein
PC3(+) tumor uptake (PC3(+) xenografts [3]; 15 min): 18.6 %ID/g
salivary gland T:M (PC3(+) xenografts [3]; 15 min): 2.7
Blood uptake, total radioactivity (PC3(+) xenografts [3]; [7]): 2.66 ± 0.12 %ID/g
Kidney uptake, total radioactivity (PC3(+) xenografts [3]; [7]): 132.9 ± 6.6 %ID/g
Blood uptake, total radioactivity (PC3(+) xenografts [3]; [8]): 1.03 ± 0.05 %ID/g
Kidney uptake, total radioactivity (PC3(+) xenografts [3]; [8]): 126.9 ± 5.6 %ID/g
PC3(+) tumor uptake (PC3(+) xenografts [3]; 60 min): 25.6 %ID/g
Radioactivity in the blood (PC3(+) xenografts [3]; 60 min (Figure 5A)): 0.519 %ID/g
Blood T:M (PC3(+) xenografts [3]; 60 min, mean ± SE, n = 8–10): 2.29 ± 0.15
Femur T:M (PC3(+) xenografts [3]; 60 min, mean ± SE, n = 8–10): 0.90 ± 0.09
Kidney T:M (PC3(+) xenografts [3]; 60 min, mean ± SE, n = 8–10): 695.1 ± 76.0
Liver T:M (PC3(+) xenografts [3]; 60 min, mean ± SE, n = 8–10): 9.88 ± 7.4
PC3(+) Tumor T:M (PC3(+) xenografts [3]; 60 min, mean ± SE, n = 8–10): 124
Blood uptake, total radioactivity (PC3(+) xenografts [3]; [9]): 0.52 ± 0.06 %ID/g
Kidney uptake, total radioactivity (PC3(+) xenografts [3]; [9]): 147.7 ± 11.6 %ID/g
PC3(+) tumor uptake (PC3(+) xenografts [3]; 120 min): 20.8 %ID/g
salivary gland T:M (PC3(+) xenografts [3]; 120 min): 2.0
Blood uptake, total radioactivity (PC3(+) xenografts [3]; [10]): 0.13 ± 0.01 %ID/g
Kidney uptake, total radioactivity (PC3(+) xenografts [3]; [10]): 50.2 ± 3.6 %ID/g
Femur uptake (PC3(+) xenografts [3]; all times 15 to 120 min): < 1 %ID/g
Femur T:M (PC3(+) xenografts [3]; all times except 120 min): < 1.8
salivary gland radioactivity cleared (PC3(+) xenografts [3]; at 120 min): 92%
decrease of kidney uptake from 15 to 120 min (PC3(+) xenografts [3]; mouse, in vivo): 65%
decrease of salivary gland T:M from 15 to 120 min (PC3(+) xenografts [3]; mouse, in vivo): 34%
increase in tumor T:M from 15 to 120 min (PC3(+) xenografts [3]; mouse, in vivo): 11 fold
PC3(−) tumor uptake (PC3(−) xenografts): 0.3 %ID/g
PC3(−) tumor uptake as fraction of uptake in PC3(+) tumors (PC3(−) xenografts): < 2%
PC3(−) Tumor T:M (PC3(−) xenografts): 1.50 ± 0.17
increase of liver T:M in blocked group compared to tracer-only group (PC3(+) xenografts [5]): 2.7 fold
PC3(+) tumor T:M of the blocked group (PC3(+) xenografts [5]; coinjection of DCFPyL 1000×): 50
decrease of PC3(+) tumor T:M in blocked group compared to non-blocked group (PC3(+) xenografts [5]; coinjection of DCFPyL 1000×): 60%
decrease of kidney T:M in blocked group (PC3(+) xenografts [5]; coinjection of DCFPyL 1000×): 96%
decrease of spleen T:M in blocked group (PC3(+) xenografts [5]; coinjection of DCFPyL 1000×): 81%
liver T:M of the blocked group (PC3(+) xenografts [5]; coinjection of DCFPyL 1000×): 27
reduction in blood and most tissue uptakes (%ID/g) compared to tracer-only group (PC3(+) xenografts [5]; coinjection of DCFPyL 1000×): > 50%
PC3(+) tumor T:M of the tracer-only group of the blocking study (PC3(+) xenografts [5]; no blocking dose): 141
Blood uptake, parent (corrected for metabolites) [4, 7]: 1.06 ± 0.05 %ID/g
Kidney uptake, parent (corrected for metabolites) [4, 8]: 20.18 ± 0.72 %ID/g
%Parent compound in blood (TLC analysis) [4]: 49.9 ± 10.7%
tissue uptake at 0.5 h ([4]; mouse, blood, intravenous, 30 min post-injection, mean ± SE, read-out: Blood uptake, parent (corrected for metabolites)): 0.4 ± 0.02 %ID/g
tissue uptake at 1 h [4, 11]: 0.26 ± 0.02 %ID/g
tissue uptake at 2 h [4, 11]: 0.045 ± 0.003 %ID/g
tissue uptake at 0.25 h ([4]; mouse, kidney, intravenous, 15 min post-injection, mean ± SE, read-out: Kidney uptake, parent (corrected for metabolites)): 17.1 ± 0.84 %ID/g
tissue uptake at 1 h [4, 12]: 17.6 ± 1.48 %ID/g
tissue uptake at 2 h [4, 12]: 3.41 ± 0.46 %ID/g
% of parent in blood ([4]; nude, mouse, in vivo): 50-40
% of parent in kidney ([4]; nude, mouse, in vivo): 16-7
PC3(+) tumor uptake from ROI analysis of PET images [6]: 19 %ID/g
kidney uptake from ROI analysis of PET images [6]: 187 %ID/g
liver uptake from ROI analysis of PET images [6]: 3 %ID/g
